pIC50: −log10 of the molar value.

influenza B virus minigenome (Hubei B), sequence (P04665 whole entry): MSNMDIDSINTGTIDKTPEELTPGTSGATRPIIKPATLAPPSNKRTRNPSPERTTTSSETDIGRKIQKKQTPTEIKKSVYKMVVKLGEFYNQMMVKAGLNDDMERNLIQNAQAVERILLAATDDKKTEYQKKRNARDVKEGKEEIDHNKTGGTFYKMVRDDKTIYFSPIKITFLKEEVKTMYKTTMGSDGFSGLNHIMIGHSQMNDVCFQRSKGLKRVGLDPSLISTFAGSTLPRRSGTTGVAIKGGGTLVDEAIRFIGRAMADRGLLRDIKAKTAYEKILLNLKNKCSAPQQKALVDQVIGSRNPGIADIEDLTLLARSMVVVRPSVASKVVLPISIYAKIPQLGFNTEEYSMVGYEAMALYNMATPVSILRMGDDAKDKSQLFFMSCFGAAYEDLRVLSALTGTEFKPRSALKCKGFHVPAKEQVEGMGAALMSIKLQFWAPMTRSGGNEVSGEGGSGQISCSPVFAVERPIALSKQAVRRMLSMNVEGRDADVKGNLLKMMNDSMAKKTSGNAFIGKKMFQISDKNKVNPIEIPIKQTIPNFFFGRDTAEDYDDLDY

The first assay deals with influenza A virus minigenome (PB2, PB1, PA, NP proteins) (UniProt P04665). The format is cell-based. The following applies: read-out: RNP_Hubei B.
influenza A virus minigenome (PB2, PB1, PA, NP proteins), sequence (P04665 whole entry): as above
With `CN1C(COc2ccc(-c3cc(C(N)=O)c(=O)[nH]c3C(F)(F)F)cc2)COCC1(C)C` (stereo not shown) [Example 207, 2-oxo-6-(trifluoromethyl)-5-(4-((4,5,5-trimethylmorpholin-3-yl)methoxy)phenyl)-1,2-dihydropyridine-3-carboxamide], the pIC50 was 5.00 to 5.30. Turning to `CN1C(COc2ccc(-c3cc(C(N)=O)c(=O)[nH]c3C(F)(F)F)cc2)COCC12COC2` (stereo not shown) [Example 206, 5-(4-((5-methyl-2,8-dioxa-5-azaspiro[3.5]nonan-6-yl)methoxy)phenyl)-2-oxo-6-(trifluoromethyl)-1,2-dihydropyridine-3-carboxamide], the pIC50 was 4.30 to 4.60.

A further assay addresses influenza B virus minigenome (Hubei B) (UniProt P04665). The format is cell-based. To be noted: read-out: RNP_Hubei B IC50.
Turning to `NC(=O)c1cc(-c2ccc(OC[C@@H]3COC[C@]4(CCOC4)O3)cc2)c(C(F)(F)F)[nH]c1=O` [Example 440, 5-(4-(((5R,7S)-2,6,9-trioxaspiro[4.5]decan-7-yl)methoxy)phenyl)-2-oxo-6-(trifluoromethyl)-1,2-dihydropyridine-3-carboxamide], the pIC50 was 5.00 to 5.30.

On to `COC[C@]1(C2CC2)COC[C@@H](COc2ccc(-c3cc(C(N)=O)c(=O)[nH]c3C(F)(F)F)cc2)O1` [Example 438, 5-(4-(((2S,6R)-6-cyclopropyl-6-(methoxymethyl)-1,4-dioxan-2-yl)methoxy)phenyl)-2-oxo-6-(trifluoromethyl)-1,2-dihydropyridine-3-carboxamide], for which the pIC50 is 5.00 to 5.30. Still for that read-out and setting: the same measure for `C[C@]1(COCCF)COC[C@@H](COc2ccc(-c3cc(C(N)=O)c(=O)[nH]c3C(F)(F)F)cc2)O1` [Example 436, 5-(4-(((2S,6R)-6-((2-fluoroethoxy)methyl)-6-methyl-1,4-dioxan-2-yl)methoxy)phenyl)-2-oxo-6-(trifluoromethyl)-1,2-dihydropyridine-3-carboxamide]: 5.00 to 5.30; for `COC[C@@]1(C2CC2)COC[C@@H](COc2ccc(-c3cc(C(N)=O)c(=O)[nH]c3C(F)(F)F)cc2)O1` [Example 439, 5-(4-(((2S,6S)-6-cyclopropyl-6-(methoxymethyl)-1,4-dioxan-2-yl)methoxy)phenyl)-2-oxo-6-(trifluoromethyl)-1,2-dihydropyridine-3-carboxamide]: 5.00 to 5.30. For `C[C@@]1(C2CC2)COC[C@@H](COc2ccc(-c3cc(C(N)=O)c(=O)[nH]c3C(F)(F)F)cc2)O1` [Example 437, 5-(4-(((2S,6R)-6-cyclopropyl-6-methyl-1,4-dioxan-2-yl)methoxy)phenyl)-2-oxo-6-(trifluoromethyl)-1,2-dihydropyridine-3-carboxamide], the pIC50 is 5.00 to 5.30.

The record behind these values is patent US20240360082A1, “SUBSTITUTED PYRIDONE COMPOUNDS USEFUL TO TREAT ORTH[…]” (priority 2021, published 2024).
